Measured values reported in the NIST ThermoML archive (doi:10.1021/je900954y).
± gives the expanded uncertainty stated by the source.

Experiments:
[1] = 101 kPa, Liquid
[2] = xn = mol fraction of the nth substance listed; details: 101 kPa, Liquid

CCC(C)O (stereo not drawn) [butan-2-ol]
[1]
Details	mass density [kg/m3]	viscosity [mPa·s]
298.15 K	802.4 ± 0.8	2.999 ± 0.046
303.15 K	798.7 ± 0.8	2.499 ± 0.039
308.15 K	793.8 ± 0.8	2.475 ± 0.038

CCCCCCCO [heptan-1-ol]
[1]
Details	mass density [kg/m3]	viscosity [mPa·s]
298.15 K	818.9 ± 0.7	5.914 ± 0.085
303.15 K	815.4 ± 0.8	5.045 ± 0.075
308.15 K	811.9 ± 0.8	4.34 ± 0.065

CCCCCCCO [heptan-1-ol] + CC(O)CO
[2], x1 = 1
Details	mass density [kg/m3]	viscosity [mPa·s]
298.15 K	818.9 ± 0.7	5.914 ± 0.085
303.15 K	815.4 ± 0.8	5.045 ± 0.075
308.15 K	811.9 ± 0.8	4.34 ± 0.065

CC(O)CO (stereo not drawn) [1,2-propanediol] + CCCCCCCO
[2]
Details	mass density, 298.15 K [kg/m3]	mass density, 303.15 K [kg/m3]	mass density, 308.15 K [kg/m3]	viscosity, 298.15 K [mPa·s]	viscosity, 303.15 K [mPa·s]	viscosity, 308.15 K [mPa·s]
x2 = 0	1033.1 ± 0.5	1029.9 ± 0.5	1025.4 ± 0.5	45.44 ± 0.53	33.99 ± 0.4	26.34 ± 0.31
x2 = 0.1383	980.3 ± 0.4	976.4 ± 0.4	972 ± 0.5	27.34 ± 0.33	20.69 ± 0.25	16.05 ± 0.2
x2 = 0.3163	928.8 ± 0.5	925 ± 0.5	920.8 ± 0.5	15.9 ± 0.2	12.8 ± 0.16	9.977 ± 0.13
x2 = 0.386	912.5 ± 0.6	908.6 ± 0.6	904.6 ± 0.6	13.64 ± 0.17	10.88 ± 0.14	8.925 ± 0.12
x2 = 0.4049	908.3 ± 0.6	904.4 ± 0.6	900.4 ± 0.6	13.19 ± 0.17	10.75 ± 0.14	8.567 ± 0.11
x2 = 0.4673	895.4 ± 0.6	891.6 ± 0.6	887.6 ± 0.6	11.94 ± 0.15	9.431 ± 0.12	7.663 ± 0.1
x2 = 0.6097	869.7 ± 0.6	866 ± 0.7	862.2 ± 0.7	9.882 ± 0.13	7.655 ± 0.1	6.373 ± 0.09
x2 = 0.7341	851 ± 0.7	847.3 ± 0.7	843.7 ± 0.7	8.159 ± 0.11	6.401 ± 0.09	5.414 ± 0.079
x2 = 0.8294	838.5 ± 0.7	834.9 ± 0.7	831.3 ± 0.7	7.132 ± 0.098	5.815 ± 0.083	4.963 ± 0.074

CC(O)CO (stereo not drawn) [1,2-propanediol]
[1]
Details	mass density [kg/m3]	viscosity [mPa·s]
298.15 K	1033.1 ± 0.5	45.44 ± 0.53
303.15 K	1029.9 ± 0.5	33.99 ± 0.4
308.15 K	1025.4 ± 0.5	26.34 ± 0.31

OCCO [1,2-ethanediol]
[1]
Details	mass density [kg/m3]	viscosity [mPa·s]
298.15 K	1109.2 ± 0.7	15.41 ± 0.19
303.15 K	1104.2 ± 0.7	12.73 ± 0.16
308.15 K	1100.6 ± 0.7	10.66 ± 0.14

CCCCCCO [hexan-1-ol] + CC(O)CO
[2], x1 = 1
Details	mass density [kg/m3]	viscosity [mPa·s]
298.15 K	815.4 ± 0.8	4.643 ± 0.069
303.15 K	811.5 ± 0.8	3.999 ± 0.06
308.15 K	808.3 ± 0.8	3.471 ± 0.053

CC(O)CO (stereo not drawn) [1,2-propanediol] + CCCCCCO
[2]
Details	mass density, 298.15 K [kg/m3]	mass density, 303.15 K [kg/m3]	mass density, 308.15 K [kg/m3]	viscosity, 298.15 K [mPa·s]	viscosity, 303.15 K [mPa·s]	viscosity, 308.15 K [mPa·s]
x2 = 0	1033.1 ± 0.5	1029.9 ± 0.5	1025.4 ± 0.5	45.44 ± 0.53	33.99 ± 0.4	26.34 ± 0.31
x2 = 0.0771	1004.5 ± 0.4	1000.9 ± 0.4	996.1 ± 0.4	33.27 ± 0.39	24.28 ± 0.29	20.05 ± 0.24
x2 = 0.1213	989.9 ± 0.4	986.2 ± 0.4	981.6 ± 0.4	28.44 ± 0.34	20.82 ± 0.25	17.27 ± 0.21
x2 = 0.2425	953.6 ± 0.5	949.9 ± 0.5	945.8 ± 0.5	18.56 ± 0.23	13.93 ± 0.17	11.97 ± 0.15
x2 = 0.3311	930.7 ± 0.5	927 ± 0.5	923.1 ± 0.5	14.38 ± 0.18	11.28 ± 0.14	9.627 ± 0.13
x2 = 0.5225	888.7 ± 0.6	884.9 ± 0.6	881.3 ± 0.6	9.486 ± 0.12	8.063 ± 0.11	6.428 ± 0.091
x2 = 0.5377	885.7 ± 0.6	881.9 ± 0.6	878.2 ± 0.6	9.057 ± 0.12	7.837 ± 0.11	6.308 ± 0.089
x2 = 0.6309	868.9 ± 0.6	865.1 ± 0.7	861.5 ± 0.7	7.625 ± 0.1	6.725 ± 0.094	5.322 ± 0.078
x2 = 0.7444	850.3 ± 0.7	846.4 ± 0.7	842.9 ± 0.7	6.313 ± 0.089	5.206 ± 0.077	4.494 ± 0.067
x2 = 0.8611	833.3 ± 0.7	829.4 ± 0.7	826 ± 0.7	5.324 ± 0.078	4.61 ± 0.069	3.935 ± 0.059

CCC(C)O (stereo not drawn) [butan-2-ol] + OCCO
[2]
Details	mass density, 298.15 K [kg/m3]	mass density, 303.15 K [kg/m3]	mass density, 308.15 K [kg/m3]	viscosity, 298.15 K [mPa·s]	viscosity, 303.15 K [mPa·s]	viscosity, 308.15 K [mPa·s]
x1 = 0.0514	1085.8 ± 0.6	1081.8 ± 0.6	1078.5 ± 0.6	14.67 ± 0.18	12.2 ± 0.15	10.24 ± 0.13
x1 = 0.1049	1062.7 ± 0.6	1059.1 ± 0.6	1055.6 ± 0.5	13.78 ± 0.17	11.58 ± 0.15	9.795 ± 0.13
x1 = 0.1847	1029.6 ± 0.5	1025.9 ± 0.5	1022.8 ± 0.5	12.29 ± 0.16	10.43 ± 0.14	8.898 ± 0.12
x1 = 0.261	1000.3 ± 0.4	996.7 ± 0.4	993.4 ± 0.4	10.82 ± 0.14	9.184 ± 0.12	7.897 ± 0.11
x1 = 0.3516	968.3 ± 0.5	964.6 ± 0.5	960.9 ± 0.5	9.089 ± 0.12	7.76 ± 0.11	6.681 ± 0.093
x1 = 0.4562	934.5 ± 0.5	930.7 ± 0.5	926.9 ± 0.5	7.352 ± 0.1	6.211 ± 0.088	5.442 ± 0.079
x1 = 0.5039	920.3 ± 0.5	916.4 ± 0.6	912.5 ± 0.6	6.669 ± 0.093	5.641 ± 0.082	4.96 ± 0.074
x1 = 0.6639	876.9 ± 0.6	873.1 ± 0.6	868.9 ± 0.6	4.971 ± 0.074	4.182 ± 0.063	3.803 ± 0.057
x1 = 0.7723	850.9 ± 0.7	847.3 ± 0.7	842.9 ± 0.7	4.301 ± 0.065	3.618 ± 0.055	3.347 ± 0.051
x1 = 0.8751	828.2 ± 0.7	824.7 ± 0.7	820.1 ± 0.7	3.791 ± 0.057	3.18 ± 0.048	3.034 ± 0.046
x1 = 1	802.4 ± 0.8	798.7 ± 0.8	793.8 ± 0.8	2.999 ± 0.046	2.499 ± 0.039	2.475 ± 0.038

CCCCCCO [hexan-1-ol]
[1]
Details	mass density [kg/m3]	viscosity [mPa·s]
298.15 K	815.4 ± 0.8	4.643 ± 0.069
303.15 K	811.5 ± 0.8	3.999 ± 0.06
308.15 K	808.3 ± 0.8	3.471 ± 0.053

OCCO [1,2-ethanediol] + CCC(C)O
[2], x2 = 0
Details	mass density [kg/m3]	viscosity [mPa·s]
298.15 K	1109.2 ± 0.7	15.41 ± 0.19
303.15 K	1104.2 ± 0.7	12.73 ± 0.16
308.15 K	1100.6 ± 0.7	10.66 ± 0.14
